Measured values published in ChEMBL document CHEMBL6177996 (J Med Chem, 2025).
In brackets after ≈: the same amount, converted by molar mass.

Assay: physchem
Conditions: water

Compound: C=CC(=O)NCc1cc(C(=O)NCc2c(SC)cc(C)[nH]c2=O)c(C)c(N(CC)C2CCOCC2)c1
- solubility: 0.166 mg/mL (≈ 324 µM)
